Measured values taken from patent EP1218012B1, “USE OF ALPROSTADIL (PROSTAGLANDIN E1) FOR PRODUCING A MEDICAMENT FOR ANGIONEOGENESIS” (Mehrabi, Mohammad Reza, priority 1999, dated 2001).

Tests used:
Tierversuche = details: infused directly into hepatic veins, treated group; cited from earlier work
[1] = system: Von Willebrand Faktor (vWf); assay: Anti-vWf (factor VIII related antigen) reactive endothelium in explanted hearts (immunohistochemistry); format: in vivo, Patienten
From the text: Um die Frage zu beantworten, ob nun die Alprostadil (PGE1)-Infusionstherapie […] HTX die […] von Patienten mit vorangegangener Alprostadil (PGE 1)-Infusionstherapie und von Patienten ohne alprostadil (PGE 1)-Therapie immunhistochemisch untersucht und die […]. Jedes […] Herz wurde in drei gleich große Stücke, nämlich in Spitze, mittleren und […]. Die […] transmural durch den […] immunohistochemische Analysen wurde sofort […] in Formaldehyd nach der üblichen Methode konserviert. Die […] wurde getrennt im Subepicardium, Myocardium und dem Subendocardium bestimmt. Die Bestimmung […] 1,mm^2 wurde getrennt anhand von anti-CD34, von Willebrand-Faktor (vwf), vascular-endothelial-growth-factor (VEGF) , anti-Ki 67 (MIB 1) und Sirius Rot, immunhistochemisch […] Marker wurde Faktor VIII immunhistochemisch untersucht. Die Herzen von CMP-Patienten nach Alprostadil(PGE 1)-Infusionstherapie zeigten bedeutend […] Endothelien (Abb.2) verglichen mit der Kontrollgruppe (Subepicardium: 425,56 ± 134.17 mm^2 gegenüber 192,22 ± 77,88 mm^2-Zellen, p <0,001; Myocardium: 360,00 ± 52,31 mm^2 gegenüber 159,89 ± 61.00 mm^2 p <0,0001; Subendocardium: 408,00 ± 80,00 mm^2 gegenüber 163,89 ± 47,52 mm^2, p <0,0001). Die Ergebnisse sind auch in Fig.6B, 8C und 8D dargestellt.

[2] = system: Patienten mit chronischer Herzinsuffizien; details: compared with the dobutamine-treated group; cited from earlier work
Patienten = assay: Hypertrophy: muscle count and percent muscle fraction per mm^2; format: in vivo; details: treated patients
From the text: In PGE1-behandelten Patienten wurden Muskelzahl/mm^2 mit prozentuellem Muskelanteil/mm^2 bestimmt und mit unbehandelten Patienten und gesunden Kontrollen verglichen. Die Ergebnisse sind in der nachfolgenden Tabelle angegeben.

CD 34 = assay: Anti-CD34 reactive endothelium in explanted hearts (immunohistochemistry); format: in vivo, Patienten
From the text: Um die Frage zu beantworten, ob nun die Alprostadil (PGE1)-Infusionstherapie […] HTX die […] von Patienten mit vorangegangener Alprostadil (PGE 1)-Infusionstherapie und von Patienten ohne alprostadil (PGE 1)-Therapie immunhistochemisch untersucht und die […]. Jedes […] Herz wurde in drei gleich große Stücke, nämlich in Spitze, mittleren und […]. Die […] transmural durch den […] immunohistochemische Analysen wurde sofort […] in Formaldehyd nach der üblichen Methode konserviert. Die […] wurde getrennt im Subepicardium, Myocardium und dem Subendocardium bestimmt. Die Bestimmung […] 1,mm^2 wurde getrennt anhand von anti-CD34, von Willebrand-Faktor (vwf), vascular-endothelial-growth-factor (VEGF) , anti-Ki 67 (MIB 1) und Sirius Rot, immunhistochemisch […]. CD 34 wird von allen Endothelzellen im normalen Gewebe exprimiert. CD 34 wird auch zum Nachweis von Endothel bzw. -zellen benutzt. Patienten nach einer Alprostadil (PGE […] Endothel (Fig.1) auf als die Kontrollgruppe (Subepicardium: 599,22 ± 107,17 mm^2 gegenüber 322,89 ± 160,64 mm^2-Zellen, p <0,001; Myocardium: 482,11 ± 79,86 mm^2 vs. 227,22 ± 49,30 mm^2 , p<0.0001; Subendocardium: 482,11 ± 79,86 mm^2 gegenüber 227,22 ± 49,30 mm^2, p <0,0001); Subendocardium: 551,67 ± 107.74 mm^2 gegenüber 308,56 ± 193.86 mm^2, p < 0,01). Die Ergebnisse sind auch in Fig.6A, 8A und 8B dargestellt.

VEGF = assay: VEGF-positive capillaries in explanted hearts (immunohistochemistry); format: in vivo, Patienten
From the text: Um die Frage zu beantworten, ob nun die Alprostadil (PGE1)-Infusionstherapie […] HTX die […] von Patienten mit vorangegangener Alprostadil (PGE 1)-Infusionstherapie und von Patienten ohne alprostadil (PGE 1)-Therapie immunhistochemisch untersucht und die […]. Jedes […] Herz wurde in drei gleich große Stücke, nämlich in Spitze, mittleren und […]. Die […] transmural durch den […] immunohistochemische Analysen wurde sofort […] in Formaldehyd nach der üblichen Methode konserviert. Die […] wurde getrennt im Subepicardium, Myocardium und dem Subendocardium bestimmt. Die Bestimmung […] 1,mm^2 wurde getrennt anhand von anti-CD34, von Willebrand-Faktor (vwf), vascular-endothelial-growth-factor (VEGF) , anti-Ki 67 (MIB 1) und Sirius Rot, immunhistochemisch […]. VEGF ist beschrieben als spezifischer Wachstumsfaktor für Endothelzellen. Alprostadil (PGE 1)-behandelte Patienten zeigten bedeutend mehr VEGF-positive […] als die Kontrollgruppe (Fig.4) in allen drei untersuchten Abschnittsebenen (Subepicardium: 101,2 ± 5,5/mm^2 gegenüber 38.1 ± 7,2-VEGF-positive Zellen/mm^2, p <0,0001; Myocardium 76,2 ± 4,9/mm^2 gegenüber 20,6 ± 4,9/mm^2, p <0,0001; Subendocardium: 89,1 ± 5,7/mm^2 gegenüber 27,8 ± 5,1/mm^2, p <0,0001). Die Ergebnisse sind auch in Fig.6D, 8E und 8F dargestellt.

[3] = system: Patienten mit dilatativer CMP; assay: Fibrosis degree and heart muscle fraction (Sirius red staining) in explanted hearts; format: in vivo; details: patients with dilated CMP
From the text: Die […] wurde getrennt im Subepicardium, Myocardium und dem Subendocardium bestimmt. Die Bestimmung […] 1,mm^2 wurde getrennt anhand von anti-CD34, von Willebrand-Faktor (vwf), vascular-endothelial-growth-factor (VEGF) , anti-Ki 67 (MIB 1) und Sirius Rot, immunhistochemisch […]. Die Bestimmung des Fibrosegrads und des Herzmuskelanteils bei Alprostadil (PGE 1)-behandelten Patienten (Fig.5) gegenüber der Kontrollgruppe zeigte, dass die Alprostadil (PGE1)- Infusionstherapie den Fibrosegrad bei […] CMP […] (15,35 ± 10,32% gegenüber 6,89 ± 3,59%, p <0,05, bei einem vergleichbaren Herzmuskelanteil (72,69 ± 5,25% gegenüber 68,75 ± 6,23%).

[4] = system: Patienten mit akutem Leberversagen; details: treatment begun only 10 days after onset of clinical symptoms; cited from earlier work
Patienten mit CMP [5] = assay: Clinical infusion therapy study in CMP patients awaiting heart transplantation (haemodynamics, clinical state, maximum tolerated dose); format: in vivo
From the text: Patienten mit CMP wurden für eine Herztranslation (HTX) angemeldet und medikamentös mit ACE-Hemmern, β-Blocker, Diuretika und Digitalis behandelt.
In einer vorangegangenen Studie erhielten mehrere Patienten mit Kardiomyopathie, darunter 9 Patienten mit dilatativer CMP vor einer HTX zusätzlich eine Alprostadil (PGE 1)-Infusionstherapie.
Die Einschlusskriterien für die Alprostadil (PGE 1)-Studie waren: • a. Patienten waren in ihrer täglichen Aktivität schwerwiegend eingeschränkt, obwohl sie eine maximale oralmedikamentöse Therapie mit ACE-Hemmer (Angiotensin-Converting-Enzym-Antagonisten), Diuretika und Digitalis bekamen. • b. Die Hämodynamik der Patienten zeigte einen niedrigen Herz-Index (< 2,5 L/min/m2) und einen höheren PCWP (pulmonory capillary wedge pressure) > 20 mm HG). • c. CMP-Patienten, die einen erhöhten peripheren Gefäßwiderstand aufweisen.
Die Infusionstherapie erfolgte unter laufender Messung der hämodynamischen Parameter. […] In dieser klinisch-experimentellen Studie wurde die Alprostadil (PGE1)-Infusionstherapie bei Patienten im Endstadium der Herizinsuffizienz im Sinne einer adjuvanten Therapie bis zur HTX verwendet.
Die Alprostadil (PGE1)-Infusionen erfolgten über einen zentralen Rechtsherzkatheter (Hickman-Katheter) mit einer anfänglichen Dosis von 2,5 ng/kg/min, die dann bis zur maximal tolerierten Dosis (MTD) gesteigert wurde. MTD war die Dosis, bei der eine der folgenden Nebenwirkungen auftraten: Muskelschmerzen, Knochenschmerzen, Blutdruckabfall, Übelkeit, Erbrechen, Durchfall, Kopfschmerzen oder andere Nebvenwirkungen. Unter der MTD (29 ± 1 ng/kg/min) wurden die hämodynamischen Parameter dokumntiert. Die MTD wurde in den folgenden 12 Stunden halbiert und nach der Stabilisierung der Hämodynamik wurde die Therapie mit einer tragbaren Pumpe zu Hause fortgesetzt.

Patienten mit CMP [6] = assay: Capillary density in transmural sections of explanted hearts (immunohistochemistry); format: in vivo; details: for Kapillardichte: explanted hearts after infusion therapy
From the text: Um die Frage zu beantworten, ob nun die Alprostadil (PGE1)-Infusionstherapie […] HTX die […] von Patienten mit vorangegangener Alprostadil (PGE 1)-Infusionstherapie und von Patienten ohne alprostadil (PGE 1)-Therapie immunhistochemisch untersucht und die […]. Jedes […] Herz wurde in drei gleich große Stücke, nämlich in Spitze, mittleren und […]. Die […] transmural durch den […] immunohistochemische Analysen wurde sofort […] in Formaldehyd nach der üblichen Methode konserviert. Die […] wurde getrennt im Subepicardium, Myocardium und dem Subendocardium bestimmt. Die Bestimmung […] 1,mm^2 wurde getrennt anhand von anti-CD34, von Willebrand-Faktor (vwf), vascular-endothelial-growth-factor (VEGF) , anti-Ki 67 (MIB 1) und Sirius Rot, immunhistochemisch […]. Die […] Subepicardium, Myocardium und Subendocardium von transmuralen […] wurde quantitativ bestimmt und verglichen. Patienten, die eine Alprostadil (PGE 1)- Infusionen […]. Die […] Subepicardium, Myocardium und Subendocardium von der Kontrollgruppe betrug 608,56 ± 91,32 […]), 542,44 ± 197,20 […]^2 (sEndo), und 452,22 - 101,99 […]^2 (Myo) in den drei transmuralen-[…]. Alprostadil (PGE 1)-behandelte Patienten hatten im Vergleich dazu mit 1168,11 ± 165,04 […]), 1066,00 ± 94,63 […]^2 (SEndo), und 974,56 ± 87,12 […]^2 (Myocard), ungefähr 50% […]. Untersuchung hinsichtlich spezifischer immunohistochemischer […]: […]

MIB-1 (anti-Ki67) = MIB-1 (anti-Ki67) positive cells in explanted hearts (proliferation marker); format: in vivo, Patienten
From the text: Um die Frage zu beantworten, ob nun die Alprostadil (PGE1)-Infusionstherapie […] HTX die […] von Patienten mit vorangegangener Alprostadil (PGE 1)-Infusionstherapie und von Patienten ohne alprostadil (PGE 1)-Therapie immunhistochemisch untersucht und die […]. Jedes […] Herz wurde in drei gleich große Stücke, nämlich in Spitze, mittleren und […]. Die […] transmural durch den […] immunohistochemische Analysen wurde sofort […] in Formaldehyd nach der üblichen Methode konserviert. Die […] wurde getrennt im Subepicardium, Myocardium und dem Subendocardium bestimmt. Die Bestimmung […] 1,mm^2 wurde getrennt anhand von anti-CD34, von Willebrand-Faktor (vwf), vascular-endothelial-growth-factor (VEGF) , anti-Ki 67 (MIB 1) und Sirius Rot, immunhistochemisch […]. MIB-1 (anti-Ki67), ist ein Antikörper, der nur […], die nicht in der GO-Phase des Zellzyklus sind und wird üblicher Weise als Mitose- oder Proliferationsmarker eingesetzt. Er zeigt […] Reaktion bei mitotischen Zellen. Bei der Gruppe der Patienten mit Alprostadil(PGE 1)-Infusionstherapie war die Anzahl der MIB-1 positiven Zellen (Fig.3) in allen […] des Herzmuskels deutlich höher verglichen mit der Kontrollgruppe: (Subepicardium: 20,22 ± 4,87 pro mm^2 gegenüber 8,11 ± 2,67 pro mm^2, p <0,0001; Myocardium: 15,44 ± 4,64 pro mm^2 gegenüber 5,78 ± 2,11 pro mm^2, p <0,0001; Subendocardium: 17,84 ± 4,23 pro mm^2 gegenüber 6,89 ± 2,21 pro mm2). Die Ergebnisse sind auch in Fig.6C, 8G und 8H dargestellt.

For `CCCCC[C@H](O)/C=C/[C@H]1[C@H](O)CC(=O)[C@@H]1CCCCCCC(=O)O` [Alprostadil, Prostaglandin E1], the “Leukozyten (serologisch)” value (Tierversuche) is listed as “mehr Leukozyten”, the “anti-vWf reaktive Endothelien” value ([1]; Myocardium) is listed as 360,00 ± 52,31 mm^2 and the “anti-vWf reaktive Endothelien” value ([1]; Subendocardium) is listed as 408,00 ± 80,00 mm^2. The “Nierenfunktion (Paraaminohippurat-Clearance, Iothalamat-Clearance)” value [2] was “bessere Nierenwerte”, the “hämodynamischer Effekt” value [2] was “besseren hämodynamischen Effekt” and the “% Muskelanteil/mm^2” value (Patienten) was 74,9 ± 3,7%. The “Muskelzahl/mm^2” value (Patienten) was 982,68 ± 141,43 /mm^2, the “anti-CD34 reaktives Endothel” value (CD 34; Myocardium) was 482,11 ± 79,86 mm^2 and the “anti-CD34 reaktives Endothel” value (CD 34; Subendocardium) was 482,11 ± 79,86 mm^2. For the same compound, the “anti-CD34 reaktives Endothel” value (CD 34; Subepicardium) was 599,22 ± 107,17 mm^2, the “VEGF-positive Kapillaren/mm^2” value (VEGF; Myocardium) was 76,2 ± 4,9 /mm^2 and the “VEGF-positive Kapillaren/mm^2” value (VEGF; Subendocardium) was 89,1 ± 5,7 /mm^2. The “VEGF-positive Kapillaren/mm^2” value (VEGF; Subepicardium) was 101,2 ± 5,5 /mm^2, the Fibrosegrad [3] was 6,89 ± 3,59% and the Herzmuskelanteil [3] was 72,69 ± 5,25%. The “Wirkung bei akutem Leberversagen” value [4] was “keine Wirkung”, the “klinischer Zustand” value (Patienten mit CMP [5]; end-stage heart failure, with increased ejection fraction and cardiac output, reduced NYHA stage and pulmonary circulation pressures) was “deutliche Verbesserung” and the “maximal tolerierte Dosis (MTD)” value (Patienten mit CMP [5]; infusion via central right-heart catheter, escalated from 2,5 ng/kg/min until side effects occurred) was 29 ± 1 ng/kg/min. For the same compound, the “hämodynamische Parameter im Vergleich zu den Ausgangswerten” value (Patienten mit CMP [5]; under infusion therapy) was “deutliche Verbesserung”, the Kapillardichte (Patienten mit CMP [6]; Myocardium (Myocard)) was 974,56 ± 87,12 Kapillaren/mm^2 and the Kapillardichte (Patienten mit CMP [6]; Subendocardium (SEndo)) was 1066,00 ± 94,63 Kapillaren/mm^2. The Kapillardichte (Patienten mit CMP [6]; Subepicardium (sEpi)) was 1168,11 ± 165,04 Kapillaren/mm^2, the “mehr Kapillaren als die Kontrollgruppe” value (Patienten mit CMP [6]; treated patients versus control group) was roughly 50% and the “Anzahl der MIB-1 positiven Zellen” value (MIB-1 (anti-Ki67); Myocardium) was 15,44 ± 4,64 pro mm^2. The “Anzahl der MIB-1 positiven Zellen” value (MIB-1 (anti-Ki67); Subendocardium) was 17,84 ± 4,23 pro mm^2 and the “Anzahl der MIB-1 positiven Zellen” value (MIB-1 (anti-Ki67); Subepicardium) was 20,22 ± 4,87 pro mm^2.
